# Assays:
# IL-17A/A = molecular target: T1, IL-17A/A (Homo sapiens, UniProt Q16552); experiment: IL-17A/A HEK-Blue cell assay (SEAP reporter); format: cell-based; settings: HEK-Blue IL-17A reporter cells, IL17A/A 5 ng/mL, 20 hours, SEAP read at A630; read-out: HEK-Blue IL17AA (IC50 for IL-17A/A inhibition)
# T1 construct: purchased Genscript Z03228
# T1 sequence (Q16552 24-155): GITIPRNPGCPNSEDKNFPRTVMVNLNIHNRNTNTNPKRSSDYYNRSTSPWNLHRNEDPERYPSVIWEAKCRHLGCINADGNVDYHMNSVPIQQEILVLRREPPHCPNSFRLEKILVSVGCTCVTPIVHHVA
# IL-17A/F = molecular target: T2, IL-17A/F (Homo sapiens, UniProt Q16552+Q96PD4); experiment: IL-17A/F HEK-Blue cell assay (SEAP reporter); format: cell-based; settings: HEK-Blue IL-17A reporter cells, IL17A/F 5 ng/mL, 20 hours, SEAP read at A630; read-out: HEK-Blue IL17AF (IC50 for IL-17A/F inhibition)
# T2 construct: purchased R&D Systems
# T2 sequence (Q16552 24-155): T1 sequence (Q16552 24-155)
# T2 sequence (Q96PD4 31-163): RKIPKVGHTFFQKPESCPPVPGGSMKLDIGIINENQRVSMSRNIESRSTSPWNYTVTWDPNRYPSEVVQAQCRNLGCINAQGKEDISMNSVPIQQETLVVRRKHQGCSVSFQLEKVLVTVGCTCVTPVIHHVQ
IC50 (IL-17A/A),IC50 (IL-17A/F),SMILES
0.1 to 1 µM,> 1 µM,"CCn1nccc1C(=O)N[C@H](c1cn2nc(C[C@H]3C[C@@H](C(F)(F)F)CNC3=O)c(CN3CCC(C)(C)C3)nc2n1)C1CCC(F)(F)CC1 [Compound 342, N—((S)-(4,4-difluorocyclohexyl)(3-((3,3-dimethylpyrrolidin-1-yl)methyl)-2-(((3R,5R)-2-oxo-5-(trifluoromethyl)piperidin-3-yl)methyl)imidazo[1,2-b][1,2,4]triazin-6-yl)methyl)-1-ethyl-1H-pyrazole-5-carboxamide]"
< 0.1 µM,0.1 to 1 µM,"Cn1nccc1C(=O)N[C@H](c1cn2nc(C[C@H]3C[C@@H](C(F)(F)F)CNC3=O)c(C3CCOCC3)nc2n1)C(C1CC1)C1CC1 [Compound 320, N—((S)-2,2-dicyclopropyl-1-(2-(((3R,5R)-2-oxo-5-(trifluoromethyl)piperidin-3-yl)methyl)-3-(tetrahydro-2H-pyran-4-yl)imidazo[1,2-b][1,2,4]triazin-6-yl)ethyl)-1-methyl-1H-pyrazole-5-carboxamide]"
< 0.1 µM,> 1 µM,"Cn1nccc1C(=O)N[C@H](c1cn2nc(C[C@H]3C[C@@H](C(F)(F)F)CNC3=O)c([C@H]3CCCOC3)nc2n1)C1CCC(F)(F)CC1 (single isomer, unassigned) [Compound 263]"
< 0.1 µM,0.1 to 1 µM,"Cn1nccc1C(=O)N[C@H](c1cn2nc(C[C@H]3C[C@@H](C(F)(F)F)CNC3=O)c(C3CCOCC3)nc2n1)[C@@H]1CCCC(F)(F)C1 [Compound 277, N—((S)—((R)-3,3-difluorocyclohexyl)(2-(((3R,5R)-2-oxo-5-(trifluoromethyl)piperidin-3-yl)methyl)-3-(tetrahydro-2H-pyran-4-yl)imidazo[1,2-b][1,2,4]triazin-6-yl)methyl)-1-methyl-1H-pyrazole-5-carboxamide]"
0.1 to 1 µM,> 1 µM,"CCn1nccc1C(=O)N[C@H](c1cn2nc(C[C@H]3C[C@@H](C(F)(F)F)CNC3=O)c(N(C)CC3(C)COC3)nc2n1)C1CCC(F)(F)CC1 [Compound 195, N—((S)-(4,4-difluorocyclohexyl)(3-(methyl((3-methyloxetan-3-yl)methyl)amino)-2-(((3R,5R)-2-oxo-5-(trifluoromethyl)piperidin-3-yl)methyl)imidazo[1,2-b][1,2,4]triazin-6-yl)methyl)-1-ethyl-1H-pyrazole-5-carboxamide]"
< 0.1 µM,0.1 to 1 µM,"CCn1nccc1C(=O)N[C@H](c1cn2nc(C[C@H]3C[C@@H](C(F)(F)F)CNC3=O)c(C(C)C)nc2n1)[C@@H]1CCCC(F)(F)C1 [Compound 206, N-((1S)—((R)-3,3-difluorocyclohexyl)(3-isopropyl-2-(((3R,5R)-2-oxo-5-(trifluoromethyl)piperidin-3-yl)methyl)imidazo[1,2-b][1,2,4]triazin-6-yl)methyl)-1-ethyl-1H-pyrazole-5-carboxamide]"
0.1 to 1 µM,> 1 µM,"CCn1nccc1C(=O)N[C@H](c1cn2nc(C[C@H]3C[C@@H](C(F)(F)F)CNC3=O)c(C3CCOC4(C3)CN(C)C4)nc2n1)C1CCC(F)(F)CC1 (stereo partly drawn) [Compound 354, N-((1S)-(4,4-difluorocyclohexyl)(3-(2-methyl-5-oxa-2-azaspiro[3.5]nonan-8-yl)-2-(((3R,5R)-2-oxo-5-(trifluoromethyl)piperidin-3-yl)methyl)imidazo[1,2-b][1,2,4]triazin-6-yl)methyl)-1-ethyl-1H-pyrazole-5-carboxamide]"
< 0.1 µM,> 1 µM,"CCn1nccc1C(=O)N[C@H](c1cn2nc(C[C@H]3C[C@@H](C(F)(F)F)CNC3=O)c(CN3CC(F)(F)C3)nc2n1)C1CCC(F)(F)CC1 [Compound 332, N—((S)-(3-((3,3-difluoroazetidin-1-yl)methyl)-2-(((3R,5R)-2-oxo-5-(trifluoromethyl)piperidin-3-yl)methyl)imidazo[1,2-b][1,2,4]triazin-6-yl)(4,4-difluorocyclohexyl)methyl)-1-ethyl-1H-pyrazole-5-carboxamide]"
< 0.1 µM,> 1 µM,CCc1nonc1C(=O)N[C@H](c1cn2nc(C[C@H]3C[C@H](C)CNC3=O)c(C3CCOCC3)nc2n1)C1CCC(F)(F)CC1 [Compound 395]
< 0.1 µM,> 1 µM,"CCn1ncnc1C(=O)N[C@H](c1cn2nc(C[C@H]3C[C@@H](C(F)(F)F)CNC3=O)c(C3CCOCC3)nc2n1)C(C1CC1)C1CC1 [Compound 385, N—((S)-2,2-dicyclopropyl-1-(2-(((3R,5R)-2-oxo-5-(trifluoromethyl)piperidin-3-yl)methyl)-3-(tetrahydro-2H-pyran-4-yl)imidazo[1,2-b][1,2,4]triazin-6-yl)ethyl)-1-ethyl-1H-1,2,4-triazole-5-carboxamide]"
< 0.1 µM,0.1 to 1 µM,"Cn1nccc1C(=O)N[C@H](c1cn2nc(C[C@H]3C[C@@H](C(F)(F)F)CNC3=O)c([C@@H]3CCCOC3)nc2n1)[C@H]1CCCC(F)(F)C1 (single isomer, unassigned) [Compound 268]"
0.1 to 1 µM,> 1 µM,"CC(C)c1nocc1C(=O)N[C@H](c1cn2nc(CC3C[C@@H](C(F)(F)F)CNC3=O)cnc2n1)C1CCC(F)(F)CC1 (stereo partly drawn) [Compound 8, N—((S)-(4,4-difluorocyclohexyl)(2-(((5R)-2-oxo-5-(trifluoromethyl)piperidin-3-yl)methyl)imidazo[1,2-b][1,2,4]triazin-6-yl)methyl)-3-isopropylisoxazole-4-carboxamide]"
< 0.1 µM,> 1 µM,"CCn1nccc1C(=O)N[C@H](c1cn2nc(C[C@H]3C[C@@H](C(F)(F)F)CNC3=O)c(C(C)(C)C3CCOCC3)nc2n1)C1CCC(F)(F)CC1 [Compound 169, N-((1S)-(4,4-difluorocyclohexyl)(2-(((3R,5R)-2-oxo-5-(trifluoromethyl)piperidin-3-yl)methyl)-3-(2-(tetrahydro-2H-pyran-4-yl)propan-2-yl)imidazo[1,2-b][1,2,4]triazin-6-yl)methyl)-1-ethyl-1H-pyrazole-5-carboxamide]"
< 0.1 µM,0.1 to 1 µM,"CCn1nccc1C(=O)N[C@H](c1cn2nc(C[C@H]3C[C@@H](C(F)(F)F)CNC3=O)c([C@@H](C)C3CCOCC3)nc2n1)C1CCC(F)(F)CC1 (single isomer, unassigned) [Compound 252]"
< 0.1 µM,0.1 to 1 µM,"CCn1nccc1C(=O)N[C@H](c1cn2nc(C[C@H]3C[C@@H](C(F)(F)F)CNC3=O)c(C(C)C)nc2n1)[C@H]1CC[C@H](C)CC1 [Compound 110, 1-ethyl-N-((1S)-(3-isopropyl-2-(((3R,5R)-2-oxo-5-(trifluoromethyl)piperidin-3-yl)methyl)imidazo[1,2-b][1,2,4]triazin-6-yl)((1r,4S)-4-methylcyclohexyl)methyl)-1H-pyrazole-5-carboxamide]"
< 0.1 µM,< 0.1 µM,"CCn1nccc1C(=O)N[C@H](c1cn2nc(C[C@H]3C[C@@H](C(F)(F)F)CNC3=O)c(CC3CCOCC3)nc2n1)C1CCC(F)(F)CC1 [Compound 141, N-((1S)-(4,4-difluorocyclohexyl)(2-(((3R,5R)-2-oxo-5-(trifluoromethyl)piperidin-3-yl)methyl)-3-((tetrahydro-2H-pyran-4-yl)methyl)imidazo[1,2-b][1,2,4]triazin-6-yl)methyl)-1-ethyl-1H-pyrazole-5-carboxamide]"
